US20170202939A1, “PERSONALIZED CANCER VACCINES AND METHODS THEREFOR” (Washington University, priority 2014, published 2017)
No end group written: not given here.

Test system: neoantigen-specific CD8+ T cells
Assay: immune monitoring of vaccinated patients, HLA/peptide dextramer (tetramer) assay on cultured PBMC
Assay type: in vivo, human
Details: for Immunogenicity: AAS-directed CD8+ T cell response in vaccinated patient; for frequency of neoantigen-specific CD8+ T cells / T cell response upon vaccination: post-vaccine PBMC, dextramer assay; for frequency of neoantigen-specific CD8+ T cells: upon culture, at the peak of response; for Spontaneous Immunity: pre-vaccine (naturally-occurring) CD8+ T cell response, immune monitoring assay; for pre-existing (naturally occurring) T cell immunity: pre-vaccine PBMC samples after in vitro stimulation
Method: Immunologic monitoring (Examples 1-10). Immunologic analysis to evaluate the kinetics and magnitude of T cell response to gp100 peptides was performed using PBMCs collected weekly (prior to vaccination and until week 21. Fresh PBMCs obtained by Ficoll-Hypaque gradient centrifugation were adjusted to 2×10^6 cells/ml in Stemline media (Sigma-Aldrich) containing 5% human AB-serum, and dispersed at 1 ml/well in 24-well plates. Cultures were set up for the gp100 peptides and the CMV pp65 peptide (positive peptide control). Cultures were pulsed with 40 μg/ml peptide and 50 U/ml IL-2 fed starting at 48 hours and every other day thereafter. On day 12 (peak of response; the inventors' unpublished observation), cultures were harvested, counted, and stained for flow cytometry analysis. To assess the antigen-specific T cell frequency, cells were stained with HLAA*0201/peptide tetramers (Beckman Coulter) for 30 minutes at room temperature, followed by addition of FITC-conjugated CD4, CD14, CD19, and CD56 and allophycocyanin-conjugated CD8 (Invitrogen) for 15 minutes at 4° C. Cells were washed and resuspended in FACS buffer, and 7AAD was added 5 minutes before analysis. Control CMV pp65-specific CD8+ T cells were detected in all CMV-seropositive patients before and after immunization. A negative HLA-A*0201/HIV gag peptide tetramer control was included. 25,000 events in the CD8+ gate were collected using a hierarchical gating strategy that included FSC/SSC and excluded 7AAD+ (dead) cells and CD4+CD14+CD19+CD56+ cells. Data were acquired and analyzed using Flow-Jo software.
To examine the kinetics and magnitude of T cell immunity to AAS peptides upon vaccination, peripheral blood mononuclear cells (PBMC) were collected prior to vaccination and weekly thereafter. The CD8+ T cell response to each peptide was analyzed using a HLA-A*02:01/AAS-peptide dextramer assay after a single round of in vitro stimulation. FIG. 30A illustrates kinetics of immune responses to neoantigens. Time is recorded in weeks (0 indicates pre-vaccination). Culture conditions and staining details are described infra. Antigen-specific numbers were calculated based on dextramer percentage and total live cell yields. Immunologic analysis to evaluate the kinetic and magnitude of T cell response to AAS-encoding and gp100-derived peptides was performed using PBMC collected weekly, starting before DC vaccination (Pre-vaccine in the figures) as described (Carreno, B. M., et al., J. Clin. Invest., 123, 3383-3394, 2013). Briefly, fresh PBMC obtained by Ficoll-Paque PLUS gradient centrifugation were cultured with 40 ug/mL peptide and IL-2 (50 U/mL). On day 10 (peak of response, unpublished data, labeled “Post-Vaccine” in the figures), neoantigen specific T cell frequencies were determined by staining with HLA-A*02:01/peptide dextramers (Immudex), followed by addition of FITC-CD4, -CD14, -CD19 (Invitrogen) and ALEXA® 488-CD56 (BD Pharmigen), APC-CD8 (Invitrogen). Cells were washed, resuspended in FACS buffer containing 7AAD. Twenty five thousand events in the CD8+ gate were collected using a hierarchical gating strategy that included FSC/SSC and excluded 7AAD-positive (dead cells) and CD4/14/19/56-positive cells. PBMC/CD8+ T cells derived from an unrelated HLA-A*02:01 patient were used as negative controls for assessing specificity of HLA-A*02:01/AAS-peptide dextramers (data not shown). Data were acquired and analyzed using Flow-Jo software. […] FIG. 30B illustrates the frequency of neoantigen specific T cells in CD8+ populations isolated directly from PBMC samples and after ex-vivo expansion using autologous DC and artificial antigen presenting cells. For dominant neoantigens TMEM48 F169L, SEC24A P469L and EXOC8 Q656, results are shown for samples obtained before vaccination (Pre-vaccine) and after 3 vaccine doses (Post-vaccine). For remaining neoantigens, results obtained with post-vaccine PBMC samples are shown. […]

Sequence | Immunogenicity | frequency of neoantigen-specific CD8+ T cells [%] | Spontaneous Immunity | pre-existing (naturally occurring) T cell immunity | T cell response upon vaccination
CLNEYHLFL | Yes | 23 | Yes | could be detected in pre-vaccine PBMC samples | 
IILVAVPHV |  | 89 |  | could be detected in pre-vaccine PBMC samples | 
KLMNIQQKL | Yes | 47 | No |  | reveal two additional ones
MLGEQLFPL | Yes | 84 | No |  | 
QLSCISTYV | Yes | 42 | No |  | reveal two additional ones
